{
  "source": "patent US20060199214A1",
  "about": "“Incorporation of modified nucleotides by archaeon DNA polymerases and related methods” (priority 1999, published 2006)",
  "key": {"[1]": {"target": "T1, 9° N™ (exo-)/A485L DNA polymerase (Thermococcus sp., UniProt Q56366, A485L/D141A/E143A)", "T1 construct": "made in house", "T1 sequence (Q56366 whole entry D141A/E143A/A485L)": "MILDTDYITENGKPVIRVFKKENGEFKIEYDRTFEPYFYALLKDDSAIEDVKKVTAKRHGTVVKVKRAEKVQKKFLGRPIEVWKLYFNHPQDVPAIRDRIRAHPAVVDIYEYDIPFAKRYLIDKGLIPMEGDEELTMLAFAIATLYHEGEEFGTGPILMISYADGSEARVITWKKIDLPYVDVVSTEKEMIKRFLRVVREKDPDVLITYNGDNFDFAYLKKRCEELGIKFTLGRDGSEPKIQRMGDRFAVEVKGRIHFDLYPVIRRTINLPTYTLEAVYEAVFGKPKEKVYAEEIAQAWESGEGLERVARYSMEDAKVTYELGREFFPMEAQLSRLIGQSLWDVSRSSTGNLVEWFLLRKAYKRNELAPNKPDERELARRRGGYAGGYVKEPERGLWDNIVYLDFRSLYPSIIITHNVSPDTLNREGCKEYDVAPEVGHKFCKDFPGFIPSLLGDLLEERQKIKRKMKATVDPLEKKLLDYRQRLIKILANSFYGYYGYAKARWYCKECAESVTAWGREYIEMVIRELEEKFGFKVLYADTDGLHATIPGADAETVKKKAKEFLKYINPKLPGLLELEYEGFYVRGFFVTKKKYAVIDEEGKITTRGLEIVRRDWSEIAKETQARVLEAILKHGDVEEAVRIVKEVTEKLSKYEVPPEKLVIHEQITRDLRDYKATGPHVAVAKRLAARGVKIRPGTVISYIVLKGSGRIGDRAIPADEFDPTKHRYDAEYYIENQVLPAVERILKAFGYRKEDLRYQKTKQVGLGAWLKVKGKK", "format": "biochemical, Thermococcus sp. 9° N-7", "description": "(§1) The 2X cocktail was split in half and 9° N™ (exo-)/A485L DNA polymerase or Thermo Sequenase™ was added to a final concentration of 0.04 U/μl. […] Reactions were thermal cycled as follows: • 94° C. 5 minutes • 25 cycles at: • 94° C. 30 seconds • 55° C. 30 seconds • 72° C. 30 seconds • 72° C. 7 minutes"}, "[2]": {"target": "herpes virus type 2 (HSV-2) DNA polymerase (Human herpesvirus 2, UniProt P89453)", "sequence (P89453 whole entry)": "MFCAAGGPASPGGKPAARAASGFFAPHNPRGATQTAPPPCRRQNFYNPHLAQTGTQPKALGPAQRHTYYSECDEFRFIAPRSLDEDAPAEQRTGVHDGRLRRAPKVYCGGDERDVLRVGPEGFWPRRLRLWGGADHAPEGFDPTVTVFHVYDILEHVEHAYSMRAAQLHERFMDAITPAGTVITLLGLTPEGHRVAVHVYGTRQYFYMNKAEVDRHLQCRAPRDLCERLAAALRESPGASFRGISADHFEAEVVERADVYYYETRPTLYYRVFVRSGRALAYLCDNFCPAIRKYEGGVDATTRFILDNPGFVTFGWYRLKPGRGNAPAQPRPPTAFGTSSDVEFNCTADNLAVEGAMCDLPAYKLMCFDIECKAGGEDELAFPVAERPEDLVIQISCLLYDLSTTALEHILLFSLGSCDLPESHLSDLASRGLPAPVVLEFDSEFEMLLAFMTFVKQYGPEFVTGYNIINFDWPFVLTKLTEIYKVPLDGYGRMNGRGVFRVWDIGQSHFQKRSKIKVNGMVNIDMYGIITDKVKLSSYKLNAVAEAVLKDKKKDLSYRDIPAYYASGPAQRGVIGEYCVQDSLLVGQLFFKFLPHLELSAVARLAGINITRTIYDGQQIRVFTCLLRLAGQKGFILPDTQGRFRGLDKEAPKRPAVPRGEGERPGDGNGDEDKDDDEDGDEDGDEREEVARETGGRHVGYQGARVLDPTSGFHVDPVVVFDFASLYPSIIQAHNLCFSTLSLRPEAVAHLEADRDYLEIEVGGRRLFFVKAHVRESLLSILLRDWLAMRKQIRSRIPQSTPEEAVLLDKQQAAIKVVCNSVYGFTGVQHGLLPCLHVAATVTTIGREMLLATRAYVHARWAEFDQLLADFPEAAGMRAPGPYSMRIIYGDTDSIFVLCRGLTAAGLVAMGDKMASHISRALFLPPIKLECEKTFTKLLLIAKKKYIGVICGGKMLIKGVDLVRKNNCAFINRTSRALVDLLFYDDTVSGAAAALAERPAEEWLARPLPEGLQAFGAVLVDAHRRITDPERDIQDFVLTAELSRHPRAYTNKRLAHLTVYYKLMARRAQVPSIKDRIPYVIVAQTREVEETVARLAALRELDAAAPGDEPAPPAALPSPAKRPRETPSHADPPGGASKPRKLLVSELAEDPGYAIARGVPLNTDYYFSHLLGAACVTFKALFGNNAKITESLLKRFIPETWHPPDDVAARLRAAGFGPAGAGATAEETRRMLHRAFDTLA", "details": "Reid, et al.; cited from earlier work"}, "[3]": {"target": "human cytomegalovirus (HCMV) DNA polymerase (Human cytomegalovirus, UniProt P08546)", "details": "Reid, et al.; cited from earlier work"}, "[4]": {"target": "T2, Vent® (exo-)/A488L DNA polymerase (Thermococcus litoralis, UniProt P30317, A488L/D141A/DEL1082-1471/DEL495-1032/E143A)", "T2 construct": "made in house", "format": "biochemical", "details": "Vent (exo-)/A488L vs Vent (exo-); FIG. 6"}, "[5]": {"tested_on": "Thermo Sequenase™ DNA polymerase", "test": "Titration assay of chain terminator incorporation by Thermo Sequenase", "format": "biochemical", "details": "FIG. 9", "description": "Samples were then heated at 72° C. for 3 minutes and separated on a QuickPoint DNA sequencing gel (NOVEX, San Diego, Calif.) run at 1200 volts. The gel was fixed by soaking in 10% acetic acid/10% ethanol, dried, and polymerization products visualized by autoradiography.\nIn a related experiment dye-acyclo-CTP incorporation by the analogous […] variant was evaluated.\nas §1"}, "[6]": {"target": "human DNA polymerase alpha (Homo sapiens, UniProt P09884)", "sequence (P09884 whole entry)": "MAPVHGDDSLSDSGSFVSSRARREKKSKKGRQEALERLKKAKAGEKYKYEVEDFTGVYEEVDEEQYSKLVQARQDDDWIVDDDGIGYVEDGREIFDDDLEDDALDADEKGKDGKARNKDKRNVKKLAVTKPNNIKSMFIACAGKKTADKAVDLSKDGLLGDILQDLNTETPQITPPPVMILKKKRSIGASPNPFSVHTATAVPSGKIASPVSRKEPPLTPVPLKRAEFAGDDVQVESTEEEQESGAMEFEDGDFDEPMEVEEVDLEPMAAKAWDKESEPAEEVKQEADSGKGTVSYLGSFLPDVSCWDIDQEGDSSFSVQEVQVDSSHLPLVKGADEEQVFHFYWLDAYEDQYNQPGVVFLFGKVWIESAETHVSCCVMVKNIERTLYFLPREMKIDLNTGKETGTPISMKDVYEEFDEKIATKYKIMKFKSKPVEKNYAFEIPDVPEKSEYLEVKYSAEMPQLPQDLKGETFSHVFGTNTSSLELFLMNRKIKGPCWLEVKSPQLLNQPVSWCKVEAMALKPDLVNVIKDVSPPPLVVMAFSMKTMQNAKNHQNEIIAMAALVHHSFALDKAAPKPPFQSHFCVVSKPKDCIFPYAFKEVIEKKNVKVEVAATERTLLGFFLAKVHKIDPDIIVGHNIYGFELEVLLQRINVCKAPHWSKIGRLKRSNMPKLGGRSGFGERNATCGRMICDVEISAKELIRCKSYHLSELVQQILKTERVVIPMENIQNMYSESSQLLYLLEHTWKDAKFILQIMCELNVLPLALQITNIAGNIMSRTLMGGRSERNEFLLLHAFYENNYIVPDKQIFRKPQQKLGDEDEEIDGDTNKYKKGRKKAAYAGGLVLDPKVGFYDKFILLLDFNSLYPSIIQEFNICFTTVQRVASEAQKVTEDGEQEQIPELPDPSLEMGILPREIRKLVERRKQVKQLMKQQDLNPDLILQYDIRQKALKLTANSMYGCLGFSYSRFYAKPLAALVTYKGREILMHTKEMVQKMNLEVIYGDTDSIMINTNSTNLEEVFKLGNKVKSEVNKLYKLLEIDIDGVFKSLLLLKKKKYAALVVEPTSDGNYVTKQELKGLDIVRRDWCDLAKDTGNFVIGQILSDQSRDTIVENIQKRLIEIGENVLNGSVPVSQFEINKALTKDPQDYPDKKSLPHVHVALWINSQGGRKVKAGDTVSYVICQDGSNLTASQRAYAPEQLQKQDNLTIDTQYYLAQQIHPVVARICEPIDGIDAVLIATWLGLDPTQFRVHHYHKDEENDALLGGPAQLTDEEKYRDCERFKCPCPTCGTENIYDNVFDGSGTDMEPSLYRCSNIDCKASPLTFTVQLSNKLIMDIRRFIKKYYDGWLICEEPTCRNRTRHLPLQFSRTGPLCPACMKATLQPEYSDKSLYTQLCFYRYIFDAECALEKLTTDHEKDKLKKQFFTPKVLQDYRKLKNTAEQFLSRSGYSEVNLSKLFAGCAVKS", "sequence (Q14181 whole entry partner)": "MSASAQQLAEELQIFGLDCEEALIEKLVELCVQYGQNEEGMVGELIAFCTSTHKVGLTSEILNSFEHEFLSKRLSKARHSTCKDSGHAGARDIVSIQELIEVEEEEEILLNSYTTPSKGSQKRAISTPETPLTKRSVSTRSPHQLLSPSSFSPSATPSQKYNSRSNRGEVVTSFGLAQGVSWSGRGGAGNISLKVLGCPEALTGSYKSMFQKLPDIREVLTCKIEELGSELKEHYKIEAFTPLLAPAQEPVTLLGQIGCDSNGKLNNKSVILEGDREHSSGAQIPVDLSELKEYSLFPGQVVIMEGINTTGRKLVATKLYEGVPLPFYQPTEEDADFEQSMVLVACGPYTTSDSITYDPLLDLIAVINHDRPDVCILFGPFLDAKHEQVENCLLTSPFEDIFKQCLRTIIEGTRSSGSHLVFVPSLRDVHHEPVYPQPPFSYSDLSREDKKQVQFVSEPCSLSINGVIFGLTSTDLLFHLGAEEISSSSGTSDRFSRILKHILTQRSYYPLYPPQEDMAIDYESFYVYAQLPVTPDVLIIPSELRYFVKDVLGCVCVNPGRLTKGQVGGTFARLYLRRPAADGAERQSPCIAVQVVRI", "sequence (P49642 whole entry partner)": "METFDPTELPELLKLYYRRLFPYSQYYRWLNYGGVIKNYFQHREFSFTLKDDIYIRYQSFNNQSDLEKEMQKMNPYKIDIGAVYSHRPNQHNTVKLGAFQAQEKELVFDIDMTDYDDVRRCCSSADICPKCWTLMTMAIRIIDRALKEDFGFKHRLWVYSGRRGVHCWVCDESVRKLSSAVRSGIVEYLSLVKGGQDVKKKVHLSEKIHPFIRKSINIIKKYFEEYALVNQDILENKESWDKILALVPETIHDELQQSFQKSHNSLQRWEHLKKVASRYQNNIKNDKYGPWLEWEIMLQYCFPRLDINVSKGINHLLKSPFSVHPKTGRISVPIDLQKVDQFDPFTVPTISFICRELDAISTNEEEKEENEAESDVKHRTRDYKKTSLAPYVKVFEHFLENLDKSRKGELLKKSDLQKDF", "sequence (P49643 whole entry partner)": "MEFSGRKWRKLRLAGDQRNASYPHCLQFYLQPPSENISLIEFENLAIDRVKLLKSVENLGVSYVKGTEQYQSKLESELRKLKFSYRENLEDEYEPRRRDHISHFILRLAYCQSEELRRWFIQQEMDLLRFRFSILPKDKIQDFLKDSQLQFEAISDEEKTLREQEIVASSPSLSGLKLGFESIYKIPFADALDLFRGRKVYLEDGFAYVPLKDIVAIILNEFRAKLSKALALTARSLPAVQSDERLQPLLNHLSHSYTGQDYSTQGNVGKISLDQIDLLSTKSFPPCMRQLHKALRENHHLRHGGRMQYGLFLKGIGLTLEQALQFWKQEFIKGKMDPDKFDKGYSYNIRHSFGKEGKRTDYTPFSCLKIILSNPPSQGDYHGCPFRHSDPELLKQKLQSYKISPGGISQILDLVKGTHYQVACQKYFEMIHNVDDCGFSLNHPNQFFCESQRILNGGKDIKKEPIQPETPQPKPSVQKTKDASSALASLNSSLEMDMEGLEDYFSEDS", "details": "Reid, et al.; cited from earlier work"}},
  "data": [
    {"molecule": "Nc1nc2c(ncn2COCCOP(=O)(O)OP(=O)(O)OP(=O)(O)O)c(=O)[nH]1", "note": "[acyclo-GTP]", "values": [
      {"measurement": "Preference for acyclo-GTP over ddGTP", "setting": "[1]; 9°N (exo-)/A485L, FIG. 9", "result": "approximately 9 fold"},
      {"measurement": "Preference for insertion, acyclo-GTP versus ddGTP", "setting": "[2]", "result": "preference for insertion of acyclo-GTP over ddGTP"},
      {"measurement": "Preference for insertion, acyclo-GTP versus ddGTP", "setting": "[3]", "result": "preference for insertion of acyclo-GTP over ddGTP"}
    ]},
    {"molecule": "Nc1ccn([C@H]2CC[C@@H](COP(=O)(O)OP(=O)(O)OP(=O)(O)O)O2)c(=O)n1", "note": "[ddCTP]", "values": [
      {"measurement": "Enhancement of incorporation, variant compared to parental enzyme", "setting": "[4]", "result": "about 10 fold"},
      {"measurement": "Enhancement of incorporation, variant compared to parental enzyme", "setting": "[1]; 9°N (exo-)/A485L vs 9°N (exo-), FIG. 6", "result": "about 10 fold"}
    ]},
    {"molecule": "Nc1nc2c(ncn2[C@H]2CC[C@@H](COP(=O)(O)OP(=O)(O)OP(=O)(O)O)O2)c(=O)[nH]1", "note": "[ddGTP]", "values": [
      {"measurement": "Preference for ddGTP over acyclo-GTP", "setting": "[5]", "result": "~27", "unit": "fold"},
      {"measurement": "Preference for insertion, ddGTP versus acyclo-GTP", "setting": "[6]", "result": "strong preference"}
    ]}
  ]
}
